Measured values reported in patent publication US8927726B2, “N-cyclopropyl-N-piperidinyl-amide derivatives, pharmaceutical compositions containing them and uses thereof” (Boehringer Ingelheim International GmbH, priority 2012, dated 2015).

These compounds were tested against T1, human GPR119 (Homo sapiens, UniProt Q8TDV5) (assay: AlphaScreen cAMP assay in MIN6 cells stably transfected with human GPR119). Settings: Min-6/hGPR119 cells, 45 minutes incubation at room temperature.
T1 construct: expressed in transfected cells; host or cells: MIN6 (mouse insulinoma) cells, stably transfected
T1 sequence (Q8TDV5 1-335): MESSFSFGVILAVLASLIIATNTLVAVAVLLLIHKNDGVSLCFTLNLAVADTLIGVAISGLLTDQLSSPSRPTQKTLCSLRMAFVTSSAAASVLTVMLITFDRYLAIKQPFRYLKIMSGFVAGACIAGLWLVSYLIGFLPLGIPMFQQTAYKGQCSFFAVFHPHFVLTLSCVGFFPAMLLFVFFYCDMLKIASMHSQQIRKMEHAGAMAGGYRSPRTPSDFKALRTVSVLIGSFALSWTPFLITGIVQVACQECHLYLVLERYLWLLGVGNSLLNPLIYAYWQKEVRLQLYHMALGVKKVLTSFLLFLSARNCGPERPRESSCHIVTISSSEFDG
Format: cell-based
Method: The compounds of formula I according to the invention modulate the activity of the G-protein-coupled receptor GPR119. The effect of the compounds on the activation of GPR119 and on the stimulation of intracellular cAMP concentration is determined using the AlphaScreen cAMP Assay Kit (Cat. No. #6760625R) made by PerkinElmer.
MIN6 cells [Miyazaki Jet al. Endocrinology. 1990 July; 127(1):126-32] are stably transfected with an expression vector for human GPR119 cDNA (Acc. No. NP_848566). Min-6 / hGPR119 cells are cultured in DMEM, 10% FBS, 50 μM β-mercaptoethanol, 0.3 mg/mL Geniticin, 2 mM GlutaMAX at 37° C. 5% CO2. For the assay, the cells are seeded in Optiplates (white, 384-well, 160W-barcoded, TC, sterile with lid, Cat. No. #6007688 (Perkin Elmer); 10000 cells/well; 50 μl). The plates covered with lids are then incubated for 24 hours at 37° C./5% CO2. After the medium is aspirated from the wells completely, 10 μl of the test compound are added, the compounds are diluted using stimulating buffer (140 mM NaCl, 3.6 mM KCl, 0.5 mM NaH2PO4, 0.5 mM MgSO4, 1.5 mM CaCl2, 10 mM Hepes, 5 mM NaHCO3; pH 7.4. 0.5 mM IBMX and 0.1% BSA, the final DMSO concentration is 1%). After 45 minutes incubation at room temperature (approx. 20° C.), the cAMP concentrations are determined using the AlphaScreen cAMP Assay Kit (Cat.No.# 6760625R from PerkinElmer).
Compound `CC(C)(F)CN1CCC(N(C(=O)c2cc(-c3ccc(C#N)cc3F)on2)C2CC2)CC1` [Example 10, 5-(4-Cyano-2-fluoro-phenyl)-isoxazole-3-carboxylic acid cyclopropyl-[1-(2-fluoro-2-methyl-propyl)-piperidin-4-yl]-amide] has an EC50 of 0.019 µM. `O=C(c1ccc(-c2cnco2)cc1)N(C1CC1)C1CCN(CCC(F)(F)F)CC1` [Example 2, N-Cyclopropyl-4-oxazol-5-yl-N-[1-(3,3,3-trifluoro-propyl)-piperidin-4-yl]-benzamide] showed an EC50 of 0.643 µM. In the case of `CC(C)(F)CN1CCC(N(C(=O)c2ccc(-c3cnco3)cc2)C2CC2)CC1` [Example 1, N-Cyclopropyl-N-[1-(2-fluoro-2-methyl-propyl)-piperidin-4-yl]-4-oxazol-5-yl-benzamide], the EC50 is reported as 0.456 µM. `N#Cc1ccc(-c2cc(C(=O)N(C3CC3)C3CCN(CC4(C(F)(F)F)CC4)CC3)on2)c(F)c1` [Example 7, 3-(4-Cyano-2-fluoro-phenyl)-isoxazole-5-carboxylic acid cyclopropyl-[1-(1-trifluoromethyl-cyclopropylmethyl)-piperidin-4-yl]-amide] showed an EC50 of 0.009 µM. `N#Cc1ccc(-c2cc(C(=O)N(C3CC3)C3CCN(CC4(C(F)(F)F)CC4)CC3)no2)cc1` [Example 5, 5-(4-Cyano-phenyl)-isoxazole-3-carboxylic acid cyclopropyl-[1-(1-trifluoromethyl-cyclopropylmethyl) -piperidin-4-yl]-amide] showed an EC50 of 0.027 µM. For `O=C(c1cnc(-n2cncn2)cn1)N(C1CC1)[C@@H]1CCN(CC2(C(F)(F)F)CC2)C[C@@H]1F` (single isomer, unassigned) [Example 13], the EC50 was 0.002 µM. `CC(C)(F)CN1CCC(N(C(=O)c2cc(-c3ccc(C#N)cc3F)no2)C2CC2)CC1` [Example 8, 3-(4-Cyano-2-fluoro-phenyl)-isoxazole-5-carboxylic acid cyclopropyl-[1-(2-fluoro-2-methyl-propyl)-piperidin-4-yl]-amide] was tested, and the EC50 was 0.022 µM. In the case of `O=C(c1ccc(-c2cnco2)cc1)N(C1CC1)C1CCN(CC2(C(F)(F)F)CC2)CC1` [Example 3, N-Cyclopropyl-4-oxazol-5-yl-N-[1-(1-trifluoromethyl-cyclopropylmethyl)-piperidin-4-yl]-benzamide], the EC50 is reported as 0.079 µM. `N#Cc1ccc(-c2cc(C(=O)N(C3CC3)C3CCN(CC4(C(F)(F)F)CC4)CC3)no2)c(F)c1` [Example 9, 5-(4-Cyano-2-fluoro-phenyl)-isoxazole-3-carboxylic acid cyclopropyl-[1-(1-trifluoromethyl-cyclopropylmethyl)-piperidin-4-yl]-amide] showed an EC50 of 0.006 µM. `CC(C)(F)CN1CCC(N(C(=O)c2ccc(-c3cnco3)c(F)c2)C2CC2)CC1` [Example 4, N-Cyclopropyl-3-fluoro-N[1-(2-fluoro-2-methyl-propyl)-piperidin-4-yl]-4-oxazol-5-yl-benzamide] was tested, and the EC50 was 0.063 µM. `CC(C)(F)CN1CCC(N(C(=O)c2cc(-c3ccc(C#N)cc3)on2)C2CC2)CC1` [Example 6, 5-(4-Cyano-phenyl)-isoxazole-3-carboxylic acid cyclopropyl-[1-(2-fluoro-2-methyl-propyl) -piperidin-4-yl]-amide] gave an EC50 of 0.05 µM.

These compounds were tested against T2, mutant form of the human GPR119 receptor (Homo sapiens, UniProt Q8TDV5, S329A/T327A) (assay: LANCE cAMP-384 assay in HEK293 cells stably expressing mutant human GPR119). Settings: mutant human GPR119 (SEQ ID No. 1), 20 min at 37 C.
T2 construct: X1, the printed 24-residue N-terminal leader ([…]) that replaces Met1; (N); expressed in transfected cells
T2 sequence (Q8TDV5 2-335 T327A/S329A): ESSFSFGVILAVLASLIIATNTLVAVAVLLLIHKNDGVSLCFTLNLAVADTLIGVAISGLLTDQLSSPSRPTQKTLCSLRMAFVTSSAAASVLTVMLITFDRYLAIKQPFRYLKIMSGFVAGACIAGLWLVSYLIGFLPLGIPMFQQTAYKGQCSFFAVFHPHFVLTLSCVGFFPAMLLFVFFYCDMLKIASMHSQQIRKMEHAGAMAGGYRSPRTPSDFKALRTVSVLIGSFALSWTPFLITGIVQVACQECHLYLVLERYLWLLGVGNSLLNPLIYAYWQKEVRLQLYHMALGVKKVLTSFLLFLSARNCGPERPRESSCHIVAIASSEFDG
Format: cell-based
Method: Quantitative detection of cAMP accumulation from cells expressing human GPR119 receptor is achieved using Perkin Elmer's LANCE cAMP-384 Kit (Cat #AD0264) according to the manufacturer's protocol. Briefly, HEK293 cells stably expressing a mutant form of the human GPR119 receptor as assay tool (Methionine 1 replaced with the amino acid sequence […], and T327 & S329 changed to alanines; SEQ ID No. 1) are grown to 50-70% confluency in cell culture media (DMEM, 10% heat inactivated Fetal Bovine Serum, 50 I.U./mL penicillin, 50 μg/mL streptomycin, 10 mM HEPES, 20 μg/mL G418 Sulfate). On the day of the assay, GPR119 stable HEK293 cells are lifted from the tissue culture plate and 1000 cells/well are incubated along with various concentrations of test compounds for 20 min at 37+ C. Detection Buffer (50mM HEPES, 10mM calcium chloride, 0.35% Triton X-100, 1 mg/mL BSA) containing cAMP-specific antibody is then added to all wells and allowed to equilibrate in the dark for 10 minutes at room temperature. Upon equilibration, Detection Buffer containing europium-labeled cAMP tracer complex is added to all wells and allowed to react for 1 hour at room temperature. After 1 hour, bound europium-labeled cAMP tracer is measured using a Perkin Elmer Envision plate reader. The quantity of cAMP generated in each well is derived from a standard curve. EC50 is determined using nonlinear regression analysis of the cAMP values over a range of agonist concentration (12 points spanning the range from 30 μM to 100 pM).
Compound `Cc1ncn(-c2cnc(C(=O)N(C3CC3)[C@@H]3CCN(CC4(C(F)(F)F)CC4)C[C@@H]3F)cn2)n1` (single isomer, unassigned) [Example 15] has an EC50 of 0.03 µM. For `O=C(c1ccc(-n2cncn2)c(F)c1)N(C1CC1)[C@@H]1CCN(CC2(C(F)(F)F)CC2)C[C@@H]1F` (single isomer, unassigned) [Example 11], the EC50 was 0.01 µM. `Cc1nccn1-c1ncc(C(=O)N(C2CC2)[C@@H]2CCN(CC3(C(F)(F)F)CC3)C[C@@H]2F)cn1` (single isomer, unassigned) [Example 14] gave an EC50 of 0.027 µM. `Cc1nnnn1-c1ccc(C(=O)N(C2CC2)[C@@H]2CCN(CC3(C(F)(F)F)CC3)C[C@@H]2F)cn1` (single isomer, unassigned) [Example 12] gave an EC50 of 0.012 µM.
